Reference: patent US20060167083A1, “Therapeutic methods and compositions involving isoflav-3-ene and isoflavan structures” (priority 2002, published 2006)
Values after ≈ are worked out from the molar mass of the structure shown.

Key:
[1] = system: human cervical carcinoma (HeLa); experiment: HeLa cell apoptosis; type: cell-based; conditions: 10 μm
[2] = system: leukaemic cell line K562; experiment: Anti-proliferative effect on K562; type: cell-based; conditions: Homo sapiens
[3] = system: breast cancer line MCF7; experiment: Anti-proliferative effect on MCF7; type: cell-based; conditions: Homo sapiens
[4] = system: LNCaP human prostate cells; experiment: Athymic mice xenograft assay; type: in vivo, athymic Balb/c mice; conditions: 2 mg uid orally, 5 days per week, 58 days; treated versus control group, p<0.0003
Description: Athymic mice xenograft assay: LNCaP human prostate cells were implanted subcutaneously into athymic Balb/c mice and De (2 mg uid) administered orally from the time of cell inoculation for 5 days per week. Animals were killed 58 days post-implantation and tumour mass (mg) calculated from the formula (width^2×length)/2 as used in NCI.

[5] = system: Ras transformed NIH 3T3 cells; experiment: Focus formation assay; type: cell-based; conditions: 10 μg/ml, 3 weeks
Description: Focus formation assay: Low passage NIH 3T3 cells were transfected with either human ras gene (Ras) or empty vector (Vect) control^19. Two days later the transfected cells were seeded in 6 well plates. After reaching confluence, the cells were cultured in the vehicle DMSO or De (10 μg/ml final) for 3 weeks with media change every 3-4 days (±De). Foci were scored after staining with 0.5% crystal violet. One experiment of two performed is shown.

[6] = system: Human umbilical vein endothelial cells (HUVEC); experiment: Endothelial cell proliferation assay (MTT); type: cell-based
Description: Cells: Human umbilical vein endothelial cells (HUVEC) were prepared and grown as previously described^30. The cells were used between passages 2 and 6 for all experiments. The human prostatic adenocarcinoma cell line, LNCaP was obtained from American Tissue Type Collection and maintained according to the instructions of the supplier.
Proliferation assay: HUVEC were seeded at 3×10^3 cells per gelatin-coated microtitre well and grown in complete medium for 3 days. Dehydroequol (De) was added 3 hours after plating. Proliferation was measured using the MTT assay (Promega, Wis., USA) and is given as the rate of proliferation over the 3 days±SEM of quadruplicate determinations for each group. Proliferation of LNCaP cells was determined using the MTT assay. Cells were seeded at 2.5×10^3 cells per microtitre well. De was added 4 days after plating and assayed after a further 5 days of growth. Cell viability is expressed as a percentage of control untreated cells.

[7] = system: Human umbilical vein endothelial cells (HUVEC); experiment: Endothelial cell migration (wound) assay; type: cell-based
Description: Migration assay: HUVEC were plated at 5×10^5 cells per gelatin-coated 6 well dish and grown to confluence over 48 hours. Wounds were made in the monolayer, cells washed 3 times and fresh complete media with or without De (10 μg/ml final concentration) added. Migration was viewed over the following 18-72 hours.

[8] = system: Human umbilical vein endothelial cells (HUVEC); experiment: In vitro capillary tube formation assay in collagen gel; type: cell-based; conditions: 10 μg/ml, PMA and RMACII present
Description: In vitro tube assay: Capillary tube formation in a collagen gel was performed essentially as described by Gamble et al^30,31. Tubes were formed in the presence of the tumour promoter phorbol myristate acetate (PMA) and the anti β1 integrin antibody RMACII. De (10 μg/ml final) was added at the time of plating the cells onto the gel.

[9] = system: E selectin; experiment: E selectin expression assay on endothelial cells (FACS); type: cell-based, human; conditions: 10 μg/ml 18 hours prior to stimulation; TNF and IL-1
Description: E selectin and VCAM-1 assays: HUVEC were plated at 5×10^5 cells per 6 well dish. Cells were treated with DMSO vehicle or De (10 μg/ml final) for 18 hours prior to TNFα (1 ng/ml) addition. After 4 or 18 hours, cells were washed with PBS and incubated with antibodies against E selectin (Mab49-1B11) or VCAM-1 (Nab51-10C9) for 30 min. Goat F(ab′)2 fragment mouse-IgG(H+L)-FITC antibody (Immunotech, Marseille, France) was then added for 30 min. The cells were then trypsinised and FACS analysed on a Coulter Epics® XL-MCL (Beckman Coulter). Results are expressed as arbitrary units relating to the mean intensity of FITC fluorescence.

[10] = system: PECAM-1; experiment: PECAM-1 expression on EC, flow cytometric analysis; type: cell-based; conditions: after De treatment, data not shown
[11] = system: Sphingosine Kinase (SK); experiment: Sphingosine kinase activity assay in endothelial cells; type: cell-based, human
Description: Sphingosine Kinase activity assay: SK activity was measured in vitro by incubating the cytosolic fraction with 10 μM sphingosine-BSA complex and [γ^32P]ATP (1 mM, 0.5 mCi/ml) for 15 minutes at 37° C., as previously described^42. Stimulation was with TNFα (1 ng/ml) (rhTNF-α; R & D Systems, Minneapolis Minn. USA), PMA (100 ng/ml) and IL-1β (100 units/ml) (hrIL-1β; Immunex, Seattle Wa. USA) for 10 minutes. Cells were treated with De or DMSO vehicle as control for 18 hours prior to stimulation.

[12] = system: sphingomyelinase; experiment: TNF-stimulated sphingomyelinase activity; type: cell-based; conditions: data not shown

Oc1ccc(C2=Cc3ccc(O)cc3OC2)cc1 [Dehydroequol, 4′,7-dihydroxyisoflav-3-ene]
apoptosis of HeLa cells [1]: leading to HeLa cell apoptosis
IC50 [2]: 3 µg/mL (≈ 12.5 µM)
IC50 [3]: 1.5 µg/mL (≈ 6.24 µM)
tumour growth inhibition [4]: 49%
inhibition of development of colonies (foci) [5]: completely inhibited
cell death in proliferation assays [6]: did not cause cell death
inhibition at 10 µg/mL ([6]; Homo sapiens, HUVEC, 10 μg/ml, five experiments): 91%
inhibition of EC migration ([7]; 10 μg/ml): inhibits
viability of EC not in the vicinity of the wound ([7]; in the presence of De for 72 hours): remained viable
inhibition of capillary tube formation [8]: inhibits
induction of E selectin on the endothelium [9]: inhibits the induction
level of expression of PECAM-1 [10]: no changes
SK inhibition compared with N,N-dimethylsphingosine (DMS) [11]: equipotent
inhibition of SK activity generated by stimulation with IL-1 ([11]; dose-dependent, 18 hours pretreatment, IL-1β 100 units/ml 10 minutes): inhibits
inhibition of SK activity generated by stimulation with PMA ([11]; dose-dependent, 18 hours pretreatment, PMA 100 ng/ml 10 minutes): inhibits
inhibition of SK activity generated by stimulation with TNF ([11]; dose-dependent, 18 hours pretreatment, TNFα 1 ng/ml 10 minutes): inhibits
effect on basal levels of SK activity ([11]; unstimulated): no effect
effect on TNF-stimulated sphingomyelinase activity [12]: does not affect
